Experiment: Corrosion inhibition efficiency by electrochemical impedance spectroscopy (EIS), three-electrode cell
Details: 40° C., 3 hours
Description: Evaluation Using Electrochemical Impedance Spectroscopy (EIS)
The evaluation of corrosion inhibiting properties of the individual structures and binary compositions was carried out in a conventional electrochemical cell (E) with a three electrode arrangement as the one shown in FIG. 1. This cell allows maintaining stirring and constant temperature during development of measurement.
The inhibiting formulations to be evaluated are added in the desired concentration in the test solution (D), whereas a stirring of 2000 rpm and a temperature of 40° C. are maintained. […] The system is maintained under stirring and constant temperature for 3 hours.
After 3 hours, the electrochemical impedance spectrum is obtained in a range of 10 kHz and 10 mHz frequency and the resistance related to corrosion and together with that obtained in an identical experiment but only with the test solution was obtained from this spectrum; the corrosion inhibition efficiency was calculated.

[1] = test water SP1, concentration 50 mg/L
[2] = test water SP1, concentration 500 mg/L
[3] = test water SP1, concentration 2500 mg/L

| SMILES | Inhibition efficiency % [1] | Inhibition efficiency % [2] | Inhibition efficiency % [3] |
| --- | --- | --- | --- |
| CCCCCCNCn1nnc2ccccc21 [BZC6, N-(1H-benzotriazole-1-methyl)-hexane-1-amine] | 18.2% | 35.3% | 73.7% |
| CCCCCCCCCCCCN=Cc1c[nH]cn1 [IMC12, N-[1H-imidazole-(4-methylidene)]-dodecane-1-amine] | 23.1% | 80.9% | 95.4% |
| CCCCCCCCCCCCCCN=Cc1c[nH]cn1 [IMC14, N-[1H-imidazole-(4-methylidene)]-tetradecane-1-amine] | 19.8% | 78.9% | 98.0% |
| CCCCn1cc[n+](C)c1.[Br-] [MIMC4, 1-butyl-3-methylimidazolium bromide] | 15.2% | 61.9% | 76.0% |

— patent publication US10676829B2, “Corrosion inhibition composition for pipelines, process of elaboration and synthesis” (INSTITUTO MEXICANO DEL PETROLEO, priority 2013, dated 2020)
